Values joined by “and” are separate entries in the source; they are usually repeats but may differ in a detail not shown here. Equal entries are not always repeated.
What was measured:
Format in all cases: in vivo, humans
[1] = Performance measures: maximum weight lifted once (1RM), bench press and squat, after 10 weeks of training
From the text: (§1) The study subjects were healthy males, ages 18 to 40, with previous weight training experience. […] Pages 111-112.
(§2) The duration of the study was 10 weeks and included a supplementation regime of D-Ribose or D-Glucose as placebo control, combined with resistance weight training. The subjects were divided into two matched groups, four subjects received D-Ribose and two subjects received placebo.
Initial performance measures were individualized to each subject. The maximum weight each subject could lift once (1RM) was determined for the bench press and the squat lift. The maximal repetitions that each subject was able to lift of their own body weight was determined. Each subject performed as many repetitions as possible, followed by a one-minute rest and then repeated. The sets were continued until no weight could be lifted, limited by a maximum of 10 sets.
(§3) There were four training sessions per week. At each training session, the subject was accompanied by a supervisor to ensure proper lifting technique, safety and efficiency of the training session. D-Ribose or placebo at a dose of 5 gm was taken one-half hour before and one-half after the training session. On the three days per week when the subjects were not trained, the subjects were allowed to consume the supplement at their convenience. […]

[2] = Underwater weight test (hydrostatic weighing), % body fat, before and after 10 weeks of weight training with supplementation
Experimental: as §1, §2
(§4) Baseline testing was conducted before training and supplementation. Prior to any testing the subjects were required to read and sign an informed consent document. Subject information to be collected prior to the start of the exercise regimen included age, height, weight, body composition and performance measures. The body composition was determined by hydrostatic weighing and skinfold measurements to determine beginning percentage muscle mass and percentage body fat.
(§5) There were four training sessions per week. At each training session, the subject was accompanied by a supervisor to ensure proper lifting technique, safety and efficiency of the training session. D-Ribose or placebo at a dose of 5 gm was taken one-half hour before and one-half after the training session. On the three days per week when the subjects were not trained, the subjects were allowed to consume the supplement at their convenience. Dietary recalls were also kept on Tuesday, Wednesday and Thursday of each week, but not dietary requirements were imposed.
(§6) The lifting sessions were designed to exercise mainly the largest muscles of the body, that is, arm, leg, abdominals and back. All lifting sessions were preceded by warm-up sets of 20 repetitions at low weights. After week 4, the weight to be lifted was increased when the subject was able to do the maximum number of reps for all three sets. There was a 2-minute rest between each set and a 5 minute rest between each exercise. The lifting sessions were as follows:
(§7) Following the training period of 10 weeks, the subjects were tested as for the pre-testing procedure. […]

[3] = Skinfold test, % body fat, before and after 10 weeks of weight training with supplementation
Experimental: as §1, §2, §4, §5, §6, §7

[4] = Change in body weight after 10 weeks of training; settings: placebo group remained the same
Experimental: as §1, §2, §4, §3

[5] = group average of four subjects, post compared to pre-training
[6] = individual subjects, after 10 weeks of weight training, 5 gm before and after each session
[7] = individual subjects, post training compared to pre-training
[8] = individual subjects, pre-training baseline

## O=C[C@H](O)[C@H](O)[C@H](O)CO [Ribose, D-Ribose]
[1]; placebo group 12 pounds
  Increase in 1 RM Squat re-test: 45.5 pounds
[1]; placebo group improved by 10 pounds
  Increase in weight lifted once in the bench press (1RM): 10.5 pounds
[2]; [5]
  Underwater Weight Test, % body fat, Difference, Average: −1.3%
[2]; [6]
  Underwater Weight Test, % body fat, Post: 18.5% and 23.6% and 12.5% and 27.8%
[2]; [7]
  Underwater Weight Test, % body fat, Difference: +0.8% and −1.1% and −5.0% and −21.9%
[2]; [8]
  Underwater Weight Test, % body fat, Pre: 17.7% and 22.5% and 17.5% and 29.7%
[2]; ten week period, in words
  Decrease in total body fat (underwater weight test) compared with placebo: greater decrease in body fat
[3]; [5]
  Skinfold Test, % Body Fat, Difference, Average: −3.1%
[3]; [6]
  Skinfold Test, % Body Fat, Post: 26.2% and 14.2% and 18.0% and 11.5%
[3]; [7]
  Skinfold Test, % Body Fat, Difference: −2.8% and −2.4% and −3.7% and −3.3%
[3]; [8]
  Skinfold Test, % Body Fat, Pre: 29.0% and 16.6% and 21.7% and 14.8%
[3]; ten week period, in words
  Decrease in subcutaneous body fat (skinfold test) compared with placebo: greater decrease in body fat
[4]
  Average increase in body weight: 3.4 pounds
